Series [1] concerns the target T1, Glucagon-like peptide 1 receptor (Homo sapiens, UniProt P43220). The series is described as follows: Activation of GLP1R (unknown origin) CRE-bla expressed in CHO-K1 cells assessed as receptor potency incubated for 1 hrs by time resolved fluorescence resonance energy transfer immunoassay. The series is classed as functional, cell-based.
The next series addresses Albumin (Homo sapiens, UniProt P02768). The series is described as follows: Binding affinity to albumin (unknown origin) after 8 hrs by HPLC analysis. Also noted: concentration or dose not given beside the values. The series is classed as ADME. The note with it: isolated protein.
For series [2], the target named is T1, Glucagon-like peptide 1 receptor. The series is described as follows: Binding affinity to GLP1R (unknown origin) assessed as binding rate constant by surface plasmon resonance analysis. The note with it: filed as activator.
For series [3] the target is unchanged. In words: Binding affinity to GLP1R (unknown origin) assessed as equilibrium constant by surface plasmon resonance analysis. The note with it: filed as activator.
In series [4] the test system is Mus musculus. In words: Hypoglycemic effect in intragastric starch treated mouse assessed as reduction in blood glucose level at 30 nmol/kg, sc measured at 1.5 hrs. The format is functional, organism-based.
The test system of series [5] is Mus musculus. The series is described as follows: Hypoglycemic effect in intragastric starch treated mouse assessed as reduction in blood glucose level at 30 nmol/kg, sc measured up to 24 hrs. The format is functional, organism-based. The note with it: time hrs <=24.
Series [6] has as its system Mus musculus. In words: Hypoglycemic effect in intragastric starch treated mouse assessed as decrease in glucose AUC at 30 nmol/kg, sc measured up to 24 hrs. The format is functional, organism-based. The note with it: time hrs <=24.
The nature of series [7]: Toxicity in mouse assessed as change in body weight at 30 nmol/kg, sc measured at 1.5 hrs. The series is classed as organism-based. The note with it: in vivo.
Series [8] deals with T1, Glucagon-like peptide 1 receptor. The series is described as follows: Binding affinity to GLP1R (unknown origin) assessed as dissociation rate constant by surface plasmon resonance analysis.

Activity calls are given as the source filed them. The calls are words filed in the database; no cut-off is given here.

Albumin, sequence (P02768 whole entry): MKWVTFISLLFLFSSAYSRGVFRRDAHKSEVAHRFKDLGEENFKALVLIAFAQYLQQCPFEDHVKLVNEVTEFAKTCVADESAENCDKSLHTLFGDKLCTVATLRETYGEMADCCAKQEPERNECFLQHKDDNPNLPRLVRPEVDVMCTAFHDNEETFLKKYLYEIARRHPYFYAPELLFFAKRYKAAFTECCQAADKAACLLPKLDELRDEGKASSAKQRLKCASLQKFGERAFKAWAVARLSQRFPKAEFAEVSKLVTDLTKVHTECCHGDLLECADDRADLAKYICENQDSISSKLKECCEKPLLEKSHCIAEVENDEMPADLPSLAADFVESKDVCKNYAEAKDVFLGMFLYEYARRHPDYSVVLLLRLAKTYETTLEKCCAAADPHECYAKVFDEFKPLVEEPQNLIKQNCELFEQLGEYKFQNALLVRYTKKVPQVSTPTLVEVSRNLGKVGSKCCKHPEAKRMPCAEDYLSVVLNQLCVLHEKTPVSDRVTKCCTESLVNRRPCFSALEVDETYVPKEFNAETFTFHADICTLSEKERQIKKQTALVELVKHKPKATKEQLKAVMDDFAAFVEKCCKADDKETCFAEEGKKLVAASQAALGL
T1 sequence (P43220 whole entry): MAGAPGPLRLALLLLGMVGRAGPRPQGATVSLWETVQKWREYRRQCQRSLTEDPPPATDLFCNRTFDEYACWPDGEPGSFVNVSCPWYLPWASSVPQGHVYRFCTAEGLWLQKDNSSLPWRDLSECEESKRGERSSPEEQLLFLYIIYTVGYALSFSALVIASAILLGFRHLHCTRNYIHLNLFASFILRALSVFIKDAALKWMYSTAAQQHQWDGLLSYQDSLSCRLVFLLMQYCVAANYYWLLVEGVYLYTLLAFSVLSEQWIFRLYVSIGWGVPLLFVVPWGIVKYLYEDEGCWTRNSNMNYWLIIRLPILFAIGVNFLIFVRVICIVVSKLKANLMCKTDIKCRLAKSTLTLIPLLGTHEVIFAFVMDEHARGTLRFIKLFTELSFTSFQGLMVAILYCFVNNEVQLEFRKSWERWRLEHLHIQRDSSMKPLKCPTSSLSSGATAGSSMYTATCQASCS

`CCCCCCCCCC(=O)N[C@@H](CCC(=O)NCCCC[C@H](NC(=O)CC[C@H](NC(=O)CCCCCCCCC)C(=O)O)C(=O)NCCOCCOCC(=O)NCCOCCOCC(=O)O)C(=O)O`: the concentration giving a half-maximal response (EC50) in series [1] is 0.2 nM. This compound also had an Activity at Albumin of 90.2%.
The matching figures for `CCCCCCCCCC(=O)N[C@@H](CCC(=O)NCCCC[C@H](NC(=O)CC[C@H](NC(=O)CCCCCCCCC)C(=O)O)C(=O)NCCOCCOCC(=O)O)C(=O)O`: 0.143 nM and 94.5%.
On to `CCCCCCCCCCCCCCCC(=O)N[C@@H](CCC(=O)NCCCC[C@H](NC(=O)CC[C@H](NC(=O)CCCCCCCCCCCCCCC)C(=O)O)C(=O)NCCOCCOCC(=O)NCCOCCOCC(=O)O)C(=O)O`, for which, in [1], the concentration giving a half-maximal response (EC50) worked out at 0.0788 nM.
`CCCCCCCCCC(=O)N[C@@H](CCC(=O)NCCCC[C@H](NC(=O)CC[C@H](NC(=O)CCCCCCCCC)C(=O)O)C(=O)NCCOCCOCC(=O)NCCOCCOCC(=O)NCCOCCOCC(=O)O)C(=O)O`: the EC50 in [1] turned out to be 0.132 nM. At Albumin, this compound showed an Activity of 86%.
For SEMAGLUTIDE [listing 1 of 2 here], the Ka in series [2] is 9.24 10^4/Ms. Also, the Ke in series [3] was 1.33 10^-6M. Besides, the result in the series with Mus musculus [4], in the series with Mus musculus [5] and with Mus musculus [6] was Active.
For the compound `CCCCCCCCCCCCCCCC(=O)N[C@@H](CCC(=O)NCCCC[C@H](NC(=O)CC[C@H](NC(=O)CCCCCCCCCCCCCCC)C(=O)O)C(=O)NCCOCCOCC(=O)NCCOCCOCC(=O)NCCOCCOCC(=O)O)C(=O)O`, in series [1], the EC50 was 0.0274 nM.
For the compound SEMAGLUTIDE [listing 2 of 2 here], the values for the Activity (at Albumin; in [7]) were more than 99% and “Toxic”, respectively.
Take `CCCCCCCCCCCC(=O)N[C@@H](CCC(=O)NCCCC[C@H](NC(=O)CC[C@H](NC(=O)CCCCCCCCCCC)C(=O)O)C(=O)NCCOCCOCC(=O)NCCOCCOCC(=O)NCCOCCOCC(=O)O)C(=O)O`: the EC50 in [1] was 0.0051 nM. Moreover, the Activity on Albumin is 91.6%; in [7] it was “Toxic”. Moreover, the Ka in series [2] is 3.26 10^3/M/s. Besides, the “Dissociation rate constant (koff)” value in series [8] is listed as 2.37 10^-2/s. Moreover, the Ke in series [3] is 7.25 10^-6M. Besides, the outcome in the series with Mus musculus [4], in the series with Mus musculus [5] and with Mus musculus [6] was Active.
In the case of `CCCCCCCCCCCCCCCC(=O)N[C@@H](CCC(=O)NCCCC[C@H](NC(=O)CC[C@H](NC(=O)CCCCCCCCCCCCCCC)C(=O)O)C(=O)NCCOCCOCC(=O)O)C(=O)O`, the EC50 in series [1] came out at 0.0723 nM.
Consider `CCCCCCCCCCCCCC(=O)N[C@@H](CCC(=O)NCCCC[C@H](NC(=O)CC[C@H](NC(=O)CCCCCCCCCCCCC)C(=O)O)C(=O)NCCOCCOCC(=O)NCCOCCOCC(=O)NCCOCCOCC(=O)O)C(=O)O`, for which, in series [1], the EC50 came to 0.0016 nM. Further, the outcome in the series with Mus musculus [4], with Mus musculus [5] and in the series with Mus musculus [6] was Active. For the same compound, in series [7], the Activity entry is given as “Toxic”.
Turning to `CCCCCCCCCCCC(=O)N[C@@H](CCC(=O)NCCCC[C@H](NC(=O)CC[C@H](NC(=O)CCCCCCCCCCC)C(=O)O)C(=O)NCCOCCOCC(=O)O)C(=O)O`, the EC50 in series [1] stood at 0.0142 nM. Also, the Activity on Albumin is more than 99%; in series [7], “Toxic”. For the same compound, the Ka in [2] is 1.11 10^3/M/s. The “Dissociation rate constant (koff)” value in [8] was 6.5 10^-3/s. Further, in series [3], the Ke was 5.85 10^-6M. In addition, the outcome in the series on Mus musculus [4], in the series on Mus musculus [5] and in the series on Mus musculus [6] was Active.
With `CCCCCCCCCCCCCC(=O)N[C@@H](CCC(=O)NCCCC[C@H](NC(=O)CC[C@H](NC(=O)CCCCCCCCCCCCC)C(=O)O)C(=O)NCCOCCOCC(=O)NCCOCCOCC(=O)O)C(=O)O`, the EC50 in series [1] turned out to be 0.0066 nM. Moreover, in the series on Mus musculus [6], the outcome was Active. Also, in series [7], the Activity entry was “Toxic”.
As for `CCCCCCCCCCCCCC(=O)N[C@@H](CCC(=O)NCCCC[C@H](NC(=O)CC[C@H](NC(=O)CCCCCCCCCCCCC)C(=O)O)C(=O)NCCOCCOCC(=O)O)C(=O)O`, the EC50 in series [1] turned out to be 0.0096 nM. Also, the result in the series with Mus musculus [4] and with Mus musculus [5] was Active. Also, the Activity result in series [7] is listed as “Toxic”.
Consider `CCCCCCCCCCCC(=O)N[C@@H](CCC(=O)NCCCC[C@H](NC(=O)CC[C@H](NC(=O)CCCCCCCCCCC)C(=O)O)C(=O)NCCOCCOCC(=O)NCCOCCOCC(=O)O)C(=O)O`, for which the EC50 in [1] came out at 0.0101 nM. Moreover, the Activity at Albumin is 94.3%; in [7], “Toxic”. Moreover, the Ka in series [2] is 5.97 10^2/Ms. In [8], the “Dissociation rate constant (koff)” value is reported as 8.57 10^-3/s. Besides, the Ke in [3] is 1.44 10^-5M. For the same compound, the result in the series on Mus musculus [4], with Mus musculus [5] and in the series on Mus musculus [6] was Active.

By EC50 is commonly meant the midpoint of the concentration-response curve.

These data come from ChEMBL document CHEMBL4823284, “Design, synthesis and biological evaluation of double fatty chain-modified glucagon-like peptide-1 conjugates” (Bioorg Med Chem, 2021).
